# Experimental data from patent publication US20070287691A1, “METHOD FOR ACTIVATING THE LIPID CATABOLIC METABOLISM IN ENTERIC EPITHELIUM AND IMPROVING THE LIPID METABOLISM IN ENTERIC EPITHELIUM” (KAO CORPORATION, priority 2001, published 2007).
# Test system: rat small-intestine epithelial cell strain, IEC-6
# Test: Inhibition test of triacylglycerol synthesis in the small intestine epithelium (Nile Red, FACS)
# Assay type: cell-based
# Conditions: relative value, linoleic acid = 100; 200 μM, 24 hours
# Procedure: Using FCS (fetal calf serum)-free, Dulbecco's modified Eagle's medium (D-MEM) with 5% FBS and 70 μg/mL kanamycin added therein, a rat small-intestine epithelial cell strain, IEC-6, was incubated under 5% CO2 at 37° C. […] Twenty-four hours later, the individual cultures were washed with PBS and subsequent to treatment with tripsin, were peeled off from Culture dishes. Those cultures were separately suspended in portions of HBSS which contained Nile Red (100 ng/mL). Subsequent to incubation at room temperature for […], FACS analysis was conducted. From average fluorescence intensities, synthesized quantities of triacylglycerols were measured.
row,Structure (SMILES),Fluorescence intensity (synthesized quantity of triacylglycerols)
1,CCCCC/C=C\C/C=C\C/C=C\C/C=C\CCCC(=O)O [Arachidonic acid],87
2,CC/C=C\C/C=C\C/C=C\C/C=C\C/C=C\C/C=C\CCC(=O)O [Docosahexaenoic acid],49
3,CC/C=C\C/C=C\C/C=C\C/C=C\C/C=C\CCCC(=O)O [Eicosapentaenoic acid],52
4,CCCCC/C=C\C/C=C\CCCCCCCC(=O)O [Linoleic acid],100
5,CCCCCCCC/C=C\CCCCCCCC(=O)O [Oleic acid],191
6,CC/C=C\C/C=C\C/C=C\CCCCCCCC(=O)O [α-Linolenic acid],42
7,CCCCC/C=C\C/C=C\C/C=C\CCCCC(=O)O [γ-Linolenic acid],70
